Several values for one entry are separate records, joined by “and”; a condition that tells them apart may be missing. Identical values can stand only once.

Holding throughout (format): biochemical
In experiment [1] the target is human neutrophil collagenase (Homo sapiens, UniProt P22894). Briefly: Assay of human neutrophil collagenase inhibition activity. Particulars: human neutrophil collagenase 2 nM, H-150 buffer pH 7.4; read-out: Ki(app). As for the experimental part: H-150 buffer, pH 7.4, was prepared by adding CaCl2 H2 O (1.47 grams), NaCl (8.77 grams) and N-[2-hydroxyethyl]piperazine-N'-[2-ethanesulfonic acid] (23.83 grams) to distilled and deionized water and then bringing the final volume of the solution to 1 liter.
Chain of human neutrophil collagenase (P22894 101-467): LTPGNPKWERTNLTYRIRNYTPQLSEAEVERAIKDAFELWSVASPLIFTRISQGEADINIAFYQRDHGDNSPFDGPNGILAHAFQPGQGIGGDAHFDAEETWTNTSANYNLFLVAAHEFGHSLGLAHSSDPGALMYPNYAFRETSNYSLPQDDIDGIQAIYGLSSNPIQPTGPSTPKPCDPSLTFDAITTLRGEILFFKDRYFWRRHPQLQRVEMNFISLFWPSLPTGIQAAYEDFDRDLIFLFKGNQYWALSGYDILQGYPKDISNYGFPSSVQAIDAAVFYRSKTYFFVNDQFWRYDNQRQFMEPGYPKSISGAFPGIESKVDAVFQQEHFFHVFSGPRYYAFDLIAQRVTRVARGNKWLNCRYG
A reaction mixture with a final volume of 2.0 mL was prepared from H-150 buffer, human neutrophil collagenase (Schnierer, et al., Blochem. Biophys. Res. Comm., 191:319 (1993); Knight et al., Federation of Europena Biochemical Societies 296:263 (1992)) (2 nM). Coumarin peptide substrate (4 μL of a 5 mM solution in dimethyl sulfoxide) was added to the reaction mixture. The rate of hydrolysis was determined for about 100-200 seconds by measuring the fluorescence of the reaction at ex328 nanometers and […] using a Hitachi F-2000 Fluorescence Spectrophotometer.
(§1) 2 μL of a 10 mM inhibitor stock solution (in dimethyl sulfoxide) is added and the reduction in the rate of hydrolysis is determined. Additional 2 μL aliquots of the stock inhibitor solution is added until a 30% to 70% inhibition is observed. Ki is calculated on the assumption of simple competitive inhibition and that the substrate concentration is much less than Km.

For experiment [2], the target named is T1, 72 kD gelatinase (Homo sapiens, UniProt P08253).
T1 sequence (P08253 110-660): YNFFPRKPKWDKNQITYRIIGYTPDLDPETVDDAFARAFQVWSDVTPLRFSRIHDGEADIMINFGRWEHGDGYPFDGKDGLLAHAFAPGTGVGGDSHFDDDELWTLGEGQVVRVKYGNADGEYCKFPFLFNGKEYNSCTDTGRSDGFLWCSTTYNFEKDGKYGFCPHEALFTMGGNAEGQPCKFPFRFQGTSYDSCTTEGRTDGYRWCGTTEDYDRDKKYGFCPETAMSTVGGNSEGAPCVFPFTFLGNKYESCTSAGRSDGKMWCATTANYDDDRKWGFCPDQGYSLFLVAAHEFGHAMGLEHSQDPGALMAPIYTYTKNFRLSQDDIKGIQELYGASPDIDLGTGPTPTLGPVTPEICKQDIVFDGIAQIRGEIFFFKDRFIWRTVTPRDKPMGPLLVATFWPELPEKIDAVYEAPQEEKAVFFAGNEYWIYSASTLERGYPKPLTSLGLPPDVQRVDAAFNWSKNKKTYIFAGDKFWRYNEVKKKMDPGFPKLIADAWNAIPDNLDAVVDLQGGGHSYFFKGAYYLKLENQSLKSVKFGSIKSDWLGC
As to the kind of experiment: Assay of 72 KD gelatinase inhibition activity. Particulars: 72KD gelatinase 180 pM, H-150 buffer pH 7.4; read-out: Ki(app). As for the experimental part: H-150 buffer, pH 7.4, was prepared by CaCl2 H2O (1.47 grams), NaCl (8.77 grams) and N-[2 -hydroxyethyl]piperazine-N'-[2-ethanesulfonic acid](23.83 grams) to distilled and deionized water and then bring the final volume of the solution to 1 liter. An reaction mixture having a final volume of 250 μL was prepared with H-150 buffer, 40 μgrams of Pro-72KD gelatinase (Strongin, et al., J. Biol. Chem. 268:14033 (1993); Goldberg, et al., J. Biol. Chem., 267:4583 (1992); Kleiner, et al., Biochemistry 32:1583 (1993)) and p-aminophenyl mercuric acetate (Sigma Chemical Co., St. Louis, Mo.) (1 mM). The reaction mixture was then incubated for 3 hours at 25° C.
The reaction mixture was applied to a NAP-5 column (G-25 SEPHADEX™, Pharmacia). Fractions containing […] were identified using 12% SDS polyacrylamide gel electrphoresis and concentrated to about 100-200 μliters by centrifigation (5000 g, 15 minutes).
A solution containing H-150 buffer (2.0 mL), 72KD gelatinase (180 pM) and ethylphenolpoly(ethylene-glycolether)n (Boerhringer Mannheim) (1.3 μM) was prepared in a stirred cuvette. Coumarin peptide substrate (2 μL of a 1 mM solution in dimethyl sulfoxide) was added to the reaction mixture. The rate of hydrolysis was determined for about 100-200 seconds by measuring the fluorescence of the reaction at ex328 nanometers and […] using a Hitachi F-2000 Fluorescence Spectrophotometer.
as §1

Experiment [3] concerns the target 92 kD gelatinase (Homo sapiens, UniProt P14780). As to the kind of experiment: Assay of 92 KD gelatinase inhibition activity. Particulars: 92KD gelatinase 25 pM, H-150 buffer pH 7.4; read-out: Ki(app). A digest of the protocol:
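Pro-92 kD gelatinase activated with 1 mM p-aminophenyl mercuric acetate, 24 h at 37 °C. Assay: 25 pM enzyme in H-150 buffer pH 7.4 with coumarin peptide substrate; hydrolysis rate followed by fluorescence over 100-200 s. Inhibitor titrated in until 30-70% inhibition; Ki calculated assuming simple competitive inhibition with substrate well below Km.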

Chain of 92 kD gelatinase (P14780 107-707): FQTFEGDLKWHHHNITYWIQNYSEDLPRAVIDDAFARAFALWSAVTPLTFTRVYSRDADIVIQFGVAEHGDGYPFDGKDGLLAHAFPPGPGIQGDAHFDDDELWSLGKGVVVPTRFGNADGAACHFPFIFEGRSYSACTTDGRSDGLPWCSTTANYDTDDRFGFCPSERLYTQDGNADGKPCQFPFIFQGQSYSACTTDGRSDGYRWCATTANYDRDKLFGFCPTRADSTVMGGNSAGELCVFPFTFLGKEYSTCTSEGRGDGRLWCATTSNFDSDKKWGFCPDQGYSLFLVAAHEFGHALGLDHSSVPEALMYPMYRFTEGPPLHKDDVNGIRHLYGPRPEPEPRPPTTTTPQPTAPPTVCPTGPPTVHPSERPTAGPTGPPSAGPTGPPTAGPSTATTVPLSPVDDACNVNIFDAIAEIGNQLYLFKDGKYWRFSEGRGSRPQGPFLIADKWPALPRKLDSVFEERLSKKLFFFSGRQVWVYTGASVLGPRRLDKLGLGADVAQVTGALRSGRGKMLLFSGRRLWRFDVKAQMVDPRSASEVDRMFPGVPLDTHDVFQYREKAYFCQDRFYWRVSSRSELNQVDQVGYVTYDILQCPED

In the case of `O=C(N[C@@H](Cc1ccc(OCc2ccccc2)cc1)C(=O)N[C@H](C(=O)Nc1n[nH]c(=S)s1)c1ccccc1)OCc1ccccc1`, the Ki in experiment [1] is 1.57 nM; in experiment [2], 0.145 nM.

With `CC(C)C[C@H](NC(=O)[C@H](Cc1ccccc1)NC(=O)OCc1ccccc1)C(=O)Nc1n[nH]c(=S)s1` [5-(N-benzyloxycarbonyl-phenylalanyl-leucylamino)-1,3,4-thiadiazole-2-thione], the Ki was 1.95 nM in experiment [2] and 2.3 nM in experiment [3].

Consider `CC(C)[C@H](NC(=O)[C@H](Cc1ccccc1)NC(=O)OCc1ccccc1)C(=O)Nc1n[nH]c(=S)s1` [5-(N-benzyloxycarbonyl-phenylalanyl-valylamino)-1,3,4-thiadiazole-2-thione], for which the Ki in experiment [1] was 4.8 nM and 7.8 nM; in experiment [2] it was 4.6 nM; in experiment [3], 1.5 nM.

The values above are taken from patent US5677282A (Proscript, Inc., priority 1995, dated 1997).
